Key:
Test in all cases: cryo-EM structure, […] Å
Format in all cases: binding
ApcE2 (in FR-APC) = molecular target: T1, ApcE2 (in FR-APC) (Chroococcidiopsis thermalis, UniProt K9TUP3); conditions: non-covalent (no Cys linkage); ZZZ,ssa; ApcF2 Thr76 H-bonds ring D; pH 6.5
T1 construct: gene Chro_1035; native purification from far-red-grown cells; intact bicylindrical FR-APC; ApcE2 in second (alpha-beta)3 trimer
T1 sequence (K9TUP3 1-780): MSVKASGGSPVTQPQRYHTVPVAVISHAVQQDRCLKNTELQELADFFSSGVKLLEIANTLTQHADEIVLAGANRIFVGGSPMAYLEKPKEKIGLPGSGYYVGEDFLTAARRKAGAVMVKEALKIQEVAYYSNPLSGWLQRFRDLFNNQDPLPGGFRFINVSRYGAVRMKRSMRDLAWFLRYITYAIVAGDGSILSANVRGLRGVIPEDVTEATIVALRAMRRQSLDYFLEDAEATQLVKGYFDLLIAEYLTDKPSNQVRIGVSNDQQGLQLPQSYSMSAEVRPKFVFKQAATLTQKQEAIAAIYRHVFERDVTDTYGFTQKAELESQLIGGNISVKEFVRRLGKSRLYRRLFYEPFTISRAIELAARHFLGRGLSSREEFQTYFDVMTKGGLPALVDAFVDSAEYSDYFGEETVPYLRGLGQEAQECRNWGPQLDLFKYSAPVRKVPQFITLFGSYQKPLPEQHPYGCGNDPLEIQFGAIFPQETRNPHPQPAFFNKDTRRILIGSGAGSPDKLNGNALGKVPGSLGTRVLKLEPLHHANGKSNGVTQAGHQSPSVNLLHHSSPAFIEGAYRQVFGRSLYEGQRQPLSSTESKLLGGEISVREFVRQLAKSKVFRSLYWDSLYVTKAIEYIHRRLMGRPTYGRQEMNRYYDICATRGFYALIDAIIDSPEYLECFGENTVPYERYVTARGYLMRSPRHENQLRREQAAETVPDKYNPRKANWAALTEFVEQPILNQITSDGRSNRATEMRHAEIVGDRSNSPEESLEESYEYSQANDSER
T1 sequence (K9TY40 1-169 partner): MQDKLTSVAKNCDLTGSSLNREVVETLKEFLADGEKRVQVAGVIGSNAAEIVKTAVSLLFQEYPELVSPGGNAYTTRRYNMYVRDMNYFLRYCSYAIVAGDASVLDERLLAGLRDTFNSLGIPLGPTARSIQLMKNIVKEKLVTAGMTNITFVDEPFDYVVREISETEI

ApcB2 (in FR-APC) = molecular target: T2, ApcB2 (in FR-APC) (Chroococcidiopsis thermalis, UniProt K9TVG8); conditions: covalent; several sites, proximal (with ApcC) and distal (without ApcC); pH 6.5
T2 construct: gene Chro_1033; native purification from far-red-grown cells; intact bicylindrical FR-APC; ApcC contacts the proximal ApcB2 bilin only; with Far-red allophycocyanin alpha subunit ApcD5
T2 sequence (K9TVG8 1-161): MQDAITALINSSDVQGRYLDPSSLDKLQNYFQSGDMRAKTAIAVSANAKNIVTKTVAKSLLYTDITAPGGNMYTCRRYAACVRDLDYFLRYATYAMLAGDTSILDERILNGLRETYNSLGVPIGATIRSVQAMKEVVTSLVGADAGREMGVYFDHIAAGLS
T2 sequence (K9U510 1-67 partner): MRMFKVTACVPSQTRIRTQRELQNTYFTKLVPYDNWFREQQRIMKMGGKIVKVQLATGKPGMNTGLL

ApcF2 (in FR-APC) = molecular target: T3, ApcF2 (in FR-APC) (Chroococcidiopsis thermalis, UniProt K9TY40); conditions: non-covalent (no Cys linkage); ZZZ,ssa; Arg77 and Arg84 contact propionates; pH 6.5
T3 construct: gene Chro_1766; native purification from far-red-grown cells; intact bicylindrical FR-APC; heterodimer with ApcE2; with Far-red phycobilisome core-membrane linker protein ApcE2 (phycobiliprotein ApcE)
T3 sequence (K9TY40 1-169): T1 sequence (K9TY40 1-169 partner)
T3 sequence (K9TUP3 1-780 partner): T1 sequence (K9TUP3 1-780)

C/C=C1/C(=C/c2[nH]c(/C=C3N=C(/C=C4\NC(=O)C(CC)=C4C)C(C)=C\3CCC(=O)O)c(CCC(=O)O)c2C)NC(=O)[C@@H]1C [phycocyanobilin]
cryo-EM structure, 2.51 Å (ApcE2 (in FR-APC)): the bilin pigments in ApcE2 and ApcF2 are non-covalently bound | cryo-EM structure, 2.51 Å (ApcB2 (in FR-APC)): ApcB2 is represented in green while phycocyanobilin is represented in blue | cryo-EM structure, 2.51 Å (ApcF2 (in FR-APC)): in ApcF2 the pigment is in ZZZ,ssa conformation

Reference: article PMC12152189, “Structure of a stripped-down and tuned-up far-red phycobilisome” (Communications Biology, 2025)
